Assay results reported in patent US5223526A, “Pyrazole carboxanilide fungicides and use” (Monsanto Company, priority 1992, dated 1993).

Experiments:
Rhizoctonia solani = assay: Rice sheath blight; assay type: in vivo; parameters: scale not given here; conditions: inoculated two days later, rated after 7 days, average of five plants; for Disease Control Rating at 0.5 mg/mL: foliage and soil sprayed with 0.5 mg/mL; for Disease Control Rating at 0.02 mg/mL: foliage and soil sprayed with 0.02 mg/mL; for Disease Control Rating at 0.1 mg/mL: foliage and soil sprayed with 0.1 mg/mL
Procedure, shortened: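 Rice plants 11–15 days old had foliage and soil sprayed with 0.5, 0.1 or 0.02 mg/mL Compound A in water/acetone/Tween 20, then kept in flooded trays. Two days later, rice-grain Rhizoctonia solani inoculum went to plant bases; disease control scored versus untreated after 7 days at 25 °C, high humidity, averaging five plants.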

Botrytis cinerea [1] = assay: Eggplant grey mold; assay type: in vivo; parameters: scale not given here; conditions: inoculated 24 h later, rated after 3-4 days; for Disease Control Rating at 20 ppm: eggplant sprayed with 20 ppm; for Disease Control Rating at 100 ppm: eggplant sprayed with 100 ppm; for Disease Control Rating at 500 ppm: eggplant sprayed with 500 ppm
Procedure, shortened: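 Protective test: compound formulations (2:3 acetone:water, 0.5% Tween 20; 500, 100 or 20 ppm) sprayed on 14-18-day-old plants, with spore inoculum (4×10^6 spore/mL) applied a day later. Disease control rated on Botrytis lesions after 3-4 days at 23 °C and 100% humidity.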

succinate dehydrogenase = target: T1, succinate dehydrogenase (Botrytis cinerea, UniProt A0A384J5E4+A0A384J8V8+A0A384JHJ5); assay: Enzyme inhibition: succinate dehydrogenase activity in Botrytis cinerea mitochondria (DCPIP reduction); assay type: biochemical; conditions: concentration required to inhibit the rate of DCPIP reduction by 50%; Botrytis cinerea isolate Nick mitochondria; read-out: I50 (μM conc.)
T1 construct: succinate-DCPIP reductase assay with KCN
T1 sequence (A0A384J5E4 1-300): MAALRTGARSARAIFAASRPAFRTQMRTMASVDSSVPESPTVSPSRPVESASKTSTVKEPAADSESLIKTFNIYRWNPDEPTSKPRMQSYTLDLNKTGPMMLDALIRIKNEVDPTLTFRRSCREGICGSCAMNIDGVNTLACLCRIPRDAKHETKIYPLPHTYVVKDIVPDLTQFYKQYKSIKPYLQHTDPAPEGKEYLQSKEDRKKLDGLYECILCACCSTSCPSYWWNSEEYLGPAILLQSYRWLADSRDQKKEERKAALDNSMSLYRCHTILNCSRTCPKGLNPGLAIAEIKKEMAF
T1 sequence (A0A384J8V8 1-189): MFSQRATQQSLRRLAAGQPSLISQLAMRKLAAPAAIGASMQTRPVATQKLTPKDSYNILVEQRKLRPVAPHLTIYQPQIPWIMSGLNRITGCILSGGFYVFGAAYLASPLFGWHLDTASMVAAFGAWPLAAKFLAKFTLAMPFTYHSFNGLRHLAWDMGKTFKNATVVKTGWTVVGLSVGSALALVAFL
T1 sequence (A0A384JHJ5 1-192): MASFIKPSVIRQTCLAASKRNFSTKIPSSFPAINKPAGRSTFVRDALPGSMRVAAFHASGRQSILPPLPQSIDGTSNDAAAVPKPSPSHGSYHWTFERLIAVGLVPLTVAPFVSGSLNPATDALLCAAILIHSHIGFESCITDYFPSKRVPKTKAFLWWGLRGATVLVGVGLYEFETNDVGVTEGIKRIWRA
T1 sequence (A0A384K456 1-647 partner): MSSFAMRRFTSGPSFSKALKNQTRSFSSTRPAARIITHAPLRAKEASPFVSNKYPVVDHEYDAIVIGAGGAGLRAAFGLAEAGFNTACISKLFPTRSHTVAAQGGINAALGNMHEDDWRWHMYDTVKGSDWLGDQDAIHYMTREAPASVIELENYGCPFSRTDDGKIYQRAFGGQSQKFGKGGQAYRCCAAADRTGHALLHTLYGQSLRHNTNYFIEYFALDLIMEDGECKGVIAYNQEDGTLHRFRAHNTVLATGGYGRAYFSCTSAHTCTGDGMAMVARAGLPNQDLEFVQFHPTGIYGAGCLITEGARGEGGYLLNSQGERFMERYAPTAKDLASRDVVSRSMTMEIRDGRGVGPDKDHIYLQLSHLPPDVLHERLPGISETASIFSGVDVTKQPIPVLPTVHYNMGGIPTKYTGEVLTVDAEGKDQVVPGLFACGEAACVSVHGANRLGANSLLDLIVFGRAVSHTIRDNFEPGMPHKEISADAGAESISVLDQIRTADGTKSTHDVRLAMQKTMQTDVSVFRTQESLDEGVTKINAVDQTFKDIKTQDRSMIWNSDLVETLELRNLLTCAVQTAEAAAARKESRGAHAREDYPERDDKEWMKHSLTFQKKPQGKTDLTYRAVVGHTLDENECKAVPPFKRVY
Procedure, shortened: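 Crude mitochondria from Botrytis cinerea isolate Nick mycelia, prepared by bead-beating and differential centrifugation, started reactions. SDH activity followed as DCPIP reduction at 600 nm in 50 mM K-phosphate pH 7.2 with 1 mM KCN, 45 μM DCPIP, 17 mM succinate, 1% acetone. I50 from semilog inhibition plots, corrected for succinate-free rates.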

Botrytis cinerea [2] = assay: Vine grey mold (grape berries); assay type: in vivo; conditions: average of six berries, 7-10 days; for pest or weed control at 50 ppm: grape berries treated with 50 ppm, read-out: % DISEASE CONTROL 50 ppm; for pest or weed control at 200 ppm: grape berries treated with 200 ppm, read-out: % DISEASE CONTROL 200 ppm
Procedure, shortened: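 Preventive berry test: compound at 50 or 200 ppm (acetone/water, 0.05% Tween 20) applied one day before inoculation with 10^6 spores/mL Botrytis conidia. After 7-10 days at 20 °C under 12 h light, infected surface area rated; disease control expressed as percent reduction from control mean; repeated-test values averaged.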

Cn1cc(C(=S)Nc2ccccc2C2CCCCCC2)c(C(F)(F)F)n1 [Example 78, 1H-pyrazole-4-carbothioamide, N-(2-cycloheptylphenyl)-3-(trifluoromethyl)-1-methyl]
Disease Control Rating at 0.5 mg/mL (Rhizoctonia solani): 0
Disease Control Rating at 20 ppm (Botrytis cinerea [1]): 1
Disease Control Rating at 100 ppm (Botrytis cinerea [1]): 1
Disease Control Rating at 500 ppm (Botrytis cinerea [1]): 2
IC50 (succinate dehydrogenase): 8.7 µM
pest or weed control at 50 ppm (Botrytis cinerea [2]): 35%
pest or weed control at 200 ppm (Botrytis cinerea [2]): 35%

Cn1cc(C(=O)Nc2ccccc2C2(C)CCCC2)c(C(F)F)n1 [Example 83, 1H-pyrazole-4-carboxamide, 3-(difluoromethyl)-1-methyl-N-[2-(1-methylcyclopentyl)phenyl]-]
Disease Control Rating at 0.02 mg/mL (Rhizoctonia solani): 3
Disease Control Rating at 0.1 mg/mL (Rhizoctonia solani): 3
Disease Control Rating at 0.5 mg/mL (Rhizoctonia solani): 3
Disease Control Rating at 20 ppm (Botrytis cinerea [1]): 0
Disease Control Rating at 100 ppm (Botrytis cinerea [1]): 0
Disease Control Rating at 500 ppm (Botrytis cinerea [1]): 2
IC50 (succinate dehydrogenase): 0.13 µM
pest or weed control at 50 ppm (Botrytis cinerea [2]): 56%
pest or weed control at 200 ppm (Botrytis cinerea [2]): 55%

Cn1nc(C(F)(F)F)c(C(=O)Nc2ccccc2C2CCCCC2)c1F [Example 84, 1H-pyrazole-4-carboxamide, N-(2-cyclohexylphenyl)-5-fluoro-1-methyl-3-(trifluoromethyl)-]
Disease Control Rating at 0.5 mg/mL (Rhizoctonia solani): 0
Disease Control Rating at 20 ppm (Botrytis cinerea [1]): 0
Disease Control Rating at 100 ppm (Botrytis cinerea [1]): 1
Disease Control Rating at 500 ppm (Botrytis cinerea [1]): 2
IC50 (succinate dehydrogenase): 0.013 µM
pest or weed control at 50 ppm (Botrytis cinerea [2]): 93%
pest or weed control at 200 ppm (Botrytis cinerea [2]): 96%

Cn1nc(C(F)(F)F)c(C(=O)Nc2ccccc2C2CCCCCC2)c1F [Example 86, 1H-pyrazole-4-carboxamide, N-(2-cycloheptylphenyl)-5-fluoro-1-methyl-3-(trifluoromethyl)-]
Disease Control Rating at 0.02 mg/mL (Rhizoctonia solani): 3
Disease Control Rating at 0.1 mg/mL (Rhizoctonia solani): 3
Disease Control Rating at 0.5 mg/mL (Rhizoctonia solani): 3
Disease Control Rating at 500 ppm (Botrytis cinerea [1]): 0
IC50 (succinate dehydrogenase): 0.0063 µM
pest or weed control at 50 ppm (Botrytis cinerea [2]): 66%
pest or weed control at 200 ppm (Botrytis cinerea [2]): 82%

Cn1nc(C(F)(F)F)c(C(=O)Nc2ccccc2C2CCCCC2)c1Cl [Example 87, 1H-pyrazole-4-carboxamide, 5-chloro-N-(2-cyclohexylphenyl)-1-methyl-3-(trifluoromethyl)-]
Disease Control Rating at 0.5 mg/mL (Rhizoctonia solani): 2
Disease Control Rating at 500 ppm (Botrytis cinerea [1]): 0
IC50 (succinate dehydrogenase): 0.059 µM
pest or weed control at 50 ppm (Botrytis cinerea [2]): 61%
pest or weed control at 200 ppm (Botrytis cinerea [2]): 46%

Cn1nc(C(F)(F)F)c(C(=O)Nc2ccccc2C2CCCCCC2)c1Cl [Example 89, 1H-pyrazole-4-carboxamide, 5-chloro-N-(2-cycloheptylphenyl)-1-methyl-3-(trifluoromethyl)-]
Disease Control Rating at 0.5 mg/mL (Rhizoctonia solani): 0
Disease Control Rating at 500 ppm (Botrytis cinerea [1]): 0
IC50 (succinate dehydrogenase): 0.021 µM
pest or weed control at 50 ppm (Botrytis cinerea [2]): 24%
pest or weed control at 200 ppm (Botrytis cinerea [2]): 13%

Cn1cc(C(=O)Nc2ccccc2C2CCCC2)c(C(F)(F)Cl)n1 [Example 90, 1H-pyrazole-4-carboxamide, 3-(chlorodifluoromethyl)-N-(2-cyclopentylphenyl)-1-methyl-]
Disease Control Rating at 0.5 mg/mL (Rhizoctonia solani): 0
Disease Control Rating at 20 ppm (Botrytis cinerea [1]): 0
Disease Control Rating at 100 ppm (Botrytis cinerea [1]): 0
Disease Control Rating at 500 ppm (Botrytis cinerea [1]): 0
IC50 (succinate dehydrogenase): 0.79 µM
pest or weed control at 50 ppm (Botrytis cinerea [2]): 0%
pest or weed control at 200 ppm (Botrytis cinerea [2]): 33%

Cn1cc(C(=O)Nc2ccccc2C2CCCCCC2)c(C(F)(F)Cl)n1 [Example 92, 1H-pyrazole-4-carboxamide, 3-(chlorodifluoromethyl)-N-(2-cycloheptylphenyl)-1-methyl-]
Disease Control Rating at 0.02 mg/mL (Rhizoctonia solani): 0
Disease Control Rating at 0.1 mg/mL (Rhizoctonia solani): 1
Disease Control Rating at 0.5 mg/mL (Rhizoctonia solani): 2
Disease Control Rating at 500 ppm (Botrytis cinerea [1]): 0
IC50 (succinate dehydrogenase): 0.062 µM
pest or weed control at 50 ppm (Botrytis cinerea [2]): 36%
pest or weed control at 200 ppm (Botrytis cinerea [2]): 30%

Cn1cc(C(=O)Nc2cc(Cl)ccc2C2CCCCC2)c(C(F)F)n1 [Example 93, 1H-pyrazole-4-carboxamide, N-(5-chloro-2-cyclohexylphenyl)-3-(difluoromethyl)-1-methyl-]
Disease Control Rating at 0.5 mg/mL (Rhizoctonia solani): 0
Disease Control Rating at 20 ppm (Botrytis cinerea [1]): 0
Disease Control Rating at 100 ppm (Botrytis cinerea [1]): 0
Disease Control Rating at 500 ppm (Botrytis cinerea [1]): 0
IC50 (succinate dehydrogenase): 0.044 µM
pest or weed control at 50 ppm (Botrytis cinerea [2]): 0%
pest or weed control at 200 ppm (Botrytis cinerea [2]): 15%

Cn1cc(C(=O)Nc2cc(Cl)ccc2C2CCCCC2)c(C(F)(F)F)n1 [Example 94, 1H-pyrazole-4-carboxamide, N-(5-chloro-2-cyclohexylphenyl)-1-methyl-3-(trifluoromethyl)-]
Disease Control Rating at 0.5 mg/mL (Rhizoctonia solani): 0
Disease Control Rating at 500 ppm (Botrytis cinerea [1]): 0
IC50 (succinate dehydrogenase): 0.074 µM
pest or weed control at 50 ppm (Botrytis cinerea [2]): 0%
pest or weed control at 200 ppm (Botrytis cinerea [2]): 0%

Cn1cc(C(=O)Nc2ccc(F)cc2C2(C)CCCCC2)c(C(F)F)n1 [Example 95, 1H-pyrazole-4-carboxamide, 3-(difluoromethyl)-N-[4-fluoro-2-(1-methylcyclohexyl)phenyl]-1-methyl-]
Disease Control Rating at 0.5 mg/mL (Rhizoctonia solani): 0
Disease Control Rating at 500 ppm (Botrytis cinerea [1]): 0
IC50 (succinate dehydrogenase): 0.64 µM
pest or weed control at 50 ppm (Botrytis cinerea [2]): 48%
pest or weed control at 200 ppm (Botrytis cinerea [2]): 26%

Cc1ccc(OC2CCCCC2)c(NC(=O)c2cn(C)nc2C(F)F)c1 [Example 96, 1H-pyrazole-4-carboxamide, N-[2-(cyclohexyloxy)-5-methylphenyl]-3-(difluoromethyl)-1-methyl-]
Disease Control Rating at 0.5 mg/mL (Rhizoctonia solani): 0
Disease Control Rating at 500 ppm (Botrytis cinerea [1]): 0
IC50 (succinate dehydrogenase): 0.43 µM
pest or weed control at 50 ppm (Botrytis cinerea [2]): 0%
pest or weed control at 200 ppm (Botrytis cinerea [2]): 0%

Cc1ccc(OC2CCCCC2)c(NC(=O)c2cn(C)nc2C(F)(F)F)c1 [Example 97, 1H-pyrazole-4-carboxamide, N-[2-(cyclohexyloxy)-5-methylphenyl]-1-methyl-3-(trifluoromethyl)-]
Disease Control Rating at 0.5 mg/mL (Rhizoctonia solani): 0
Disease Control Rating at 20 ppm (Botrytis cinerea [1]): 0
Disease Control Rating at 100 ppm (Botrytis cinerea [1]): 0
Disease Control Rating at 500 ppm (Botrytis cinerea [1]): 1
IC50 (succinate dehydrogenase): 0.59 µM
pest or weed control at 50 ppm (Botrytis cinerea [2]): 0%
pest or weed control at 200 ppm (Botrytis cinerea [2]): 1%

Cn1cc(C(=O)Nc2ccc(F)cc2C2(C)CCCCC2)c(C(F)(F)F)n1 [Example 98, 1H-pyrazole-4-carboxamide, N-[4-fluoro-2-(1-methylcyclohexyl)-phenyl]-1-methyl-3-(trifluoromethyl)-]
Disease Control Rating at 0.5 mg/mL (Rhizoctonia solani): 0
Disease Control Rating at 500 ppm (Botrytis cinerea [1]): 0
IC50 (succinate dehydrogenase): 0.8 µM
pest or weed control at 50 ppm (Botrytis cinerea [2]): 14%
pest or weed control at 200 ppm (Botrytis cinerea [2]): 0%

Cc1c(C(=O)Nc2ccccc2C2CCCCCC2)c(C(F)(F)F)nn1C [Example 99, 1H-pyrazole-4-carboxamide, N-(2-cycloheptylphenyl)-1,5-dimethyl-3-(trifluoromethyl)-]
Disease Control Rating at 0.02 mg/mL (Rhizoctonia solani): 2
Disease Control Rating at 0.1 mg/mL (Rhizoctonia solani): 3
Disease Control Rating at 0.5 mg/mL (Rhizoctonia solani): 3
Disease Control Rating at 500 ppm (Botrytis cinerea [1]): 1
IC50 (succinate dehydrogenase): 0.065 µM
pest or weed control at 50 ppm (Botrytis cinerea [2]): 27%
pest or weed control at 200 ppm (Botrytis cinerea [2]): 53%

Cc1c(C(=O)Nc2ccccc2C2CCCC2)c(C(F)(F)F)nn1C [Example 101, 1H-pyrazole-4-carboxamide, N-(2-cyclopentylphenyl)-1,5-dimethyl-3-(trifluoromethyl)-]
Disease Control Rating at 0.02 mg/mL (Rhizoctonia solani): 0
Disease Control Rating at 0.1 mg/mL (Rhizoctonia solani): 1
Disease Control Rating at 0.5 mg/mL (Rhizoctonia solani): 3
Disease Control Rating at 500 ppm (Botrytis cinerea [1]): 0
IC50 (succinate dehydrogenase): 1.4 µM
pest or weed control at 50 ppm (Botrytis cinerea [2]): 10%
pest or weed control at 200 ppm (Botrytis cinerea [2]): 16%

Cn1cc(C(=O)Nc2ccccc2C2=CCOCC2)c(C(F)F)n1 [Example 104, 1H-pyrazole-4-carboxamide, 3-(difluoromethyl)-N-[2-(5,6-dihydro-2H-pyran-4-yl)phenyl]-1-methyl-]
Disease Control Rating at 0.5 mg/mL (Rhizoctonia solani): 0
Disease Control Rating at 500 ppm (Botrytis cinerea [1]): 0
IC50 (succinate dehydrogenase): 0.77 µM
pest or weed control at 50 ppm (Botrytis cinerea [2]): 0%
pest or weed control at 200 ppm (Botrytis cinerea [2]): 48%

Cc1c(C(=O)Nc2ccccc2C2CCCCCC2)c(Cl)nn1C [Example 105, 1H-py-razole-4-carboxamide, 3-chloro-N-(2-cycloheptylphenyl)-1,5-dimethyl-]
Disease Control Rating at 0.5 mg/mL (Rhizoctonia solani): 0
Disease Control Rating at 20 ppm (Botrytis cinerea [1]): 0
Disease Control Rating at 100 ppm (Botrytis cinerea [1]): 0
Disease Control Rating at 500 ppm (Botrytis cinerea [1]): 1
IC50 (succinate dehydrogenase): 0.26 µM
pest or weed control at 50 ppm (Botrytis cinerea [2]): 6%
pest or weed control at 200 ppm (Botrytis cinerea [2]): 0%

Cc1nn(C)c(Cl)c1C(=O)Nc1ccccc1C1CCCCCC1 [Example 107, 1H-pyrazole-4-carboxamide, 5-chloro-N-(2-cycloheptylphenyl)-1,3-dimethyl-]
Disease Control Rating at 0.02 mg/mL (Rhizoctonia solani): 1
Disease Control Rating at 0.1 mg/mL (Rhizoctonia solani): 3
Disease Control Rating at 0.5 mg/mL (Rhizoctonia solani): 3
Disease Control Rating at 500 ppm (Botrytis cinerea [1]): 0
IC50 (succinate dehydrogenase): 0.055 µM
pest or weed control at 50 ppm (Botrytis cinerea [2]): 27%
pest or weed control at 200 ppm (Botrytis cinerea [2]): 49%
